Assay results: patent US9610236B2, “Cosmetic use of Queuine” (AMABIOTICS, priority 2013, dated 2017)
“Also recorded” adds a separate entry of the source.

What was measured:
Format in all cases: cell-based
[1] = system: HDFa, adult human dermal fibroblasts; experiment: Cell migration into calibrated acellular gap (culture inserts, image comparison); details: 24 h
Description: The dilution range prepared for evaluating migration was identical to the range for evaluating kinetics with the exclusion of the 0.3 μg/ml concentration. The adult HDFs used were seeded in the presence of previously sterilised culture inserts which allowed the creation of calibrated acellular regions. 100,000 HDFa in 600 μl and 30,000 cells in 150 μl were respectively added outside and inside the inserts, in DMEM+2.5% FCS. After an incubation time of 5 h at 37° C., the inserts were removed and the wells washed twice with PBS 1× to eliminate every cell which had not adhered. The queuine molecule was then added at 30, 10, 3 or 1 μg/ml in DMEM 2.5% FCS, and an equivalent range of methanol was also carried out, two wells per condition. The wells were photographed at t=0 h and the plates then incubated for 24 h. The cells were fixed with paraformaldehyde before taking photos at 24 h. The images were analysed using ImageJ software, to improve the contrast thereof. All fields were examined and the two most representative of each condition were chosen for each time indication. Analysis was performed by comparison with the control. The adult HDFs were seeded in the presence of previously sterilised culture inserts, to create calibrated acellular regions in a confluent cell mat. The cells tend to fill the gap created by migrating from the edges to close the gap. After 5 h incubation at 37° C., the inserts were removed and the wells washed twice in PBS 1× to eliminate every non-adhering cell. Queuine was then added at 30, 10, 3 or 1 μg/ml in DMEM 2.5% FCS and an equivalent range of methanol was also prepared, two wells per condition. Photos of the wells were taken at t=0 h. The cells were cultured 24 h at 37° C., before being fixed in paraformaldehyde. Photos were taken at t=24 h. The photos were compared with each other to assess the difference in cell migration into the gap between the different assayed conditions.

[2] = system: HDFa, adult human dermal fibroblasts; experiment: Cell proliferation, BrdU assay; details: for Mean ODs (BrdU cell proliferation): OD 450 nm
Description: (§1) The stock solution of queuine was prepared with 15 mg/ml methanol and the dilutions were obtained in DMEM (Dulbecco's Modified […]) in the presence of variable concentrations of foetal calf serum (FCS) (DMEM+2.5% FCS+antibiotics (penicillin/streptomycin)+glutamine): depleted medium with 2.5% FCS for the viability, proliferation and cell migration experiments.
This first assay allowed fine-tuning of the applied concentration range. The dilution range for the assay of cell proliferation kinetics was as follows:
(§2) Cell type: HDFa, adult human dermal fibroblasts, person, used between passage 4 and passage 6.
(§3) The adult HDFs used were seeded to a proportion of 5×10^3 cells/well in 96-well plates (passage 4) in 200 μl culture medium without FCS (supplemented DMEM+0% FCS). 24 h after seeding, the culture medium was changed and the different dilutions of the product or its carrier (methanol) were added at 200 μl per well, with 3 wells per culture condition.
Cell proliferation was evaluated using an assay of ELISA type (BrdU assay, Bromodeoxyuridine) after 1, 2 and 3 days of culture.
BrdU is a synthetic nucleoside and an analogue of thymidine, which can be recognised by an anti-BrdU antibody. It is incorporated during DNA replication of the proliferating cells. The anti-BrdU antibody is coupled to an enzyme which, in the presence of its substrate, will degrade the latter. Detection of BrdU is therefore carried out by colorimetric enzymatic assay.
Degradation of the enzyme substrate will stain the supernatant proportional to the amount of incorporated BrdU. Measurement is then performed by read-out of optical density (OD) using a spectrophotometer at a wavelength of 450 nm. The assay was conducted at D1, D2 and D3 (D0 corresponding to the time of addition of the solutions to be assayed).

[3] = system: HDFa, adult human dermal fibroblasts; experiment: Cytotoxicity / cell viability, MTT assay; details: for Mean - blank (cell viability OD) / OD mean values (cell viability) / Mean OD values (cell viability): MTT; for OD mean values (cell viability) / Mean OD values (cell viability): OD 570 nm; for OD mean values (cell viability): DMEM 2.5% FCS
Description: as §1
The dilution range prepared for the toxicity/viability assay was the following:
as §2, §3
Cell proliferation was evaluated using a colorimetric assay (MTT assay) after culture times of 1, 2 and 3 days. This assay is based on reduction of the yellow tetrazolium salt (MTT) [3-(4,5-dimethylthiazol bromide] to a blue-purple formazan product by the mitochondrial NADPH reductases of the cells, provided they are living. The crystals were then dissolved in 100% ethanol—DMSO mixture (v/v). Colouring of the supernatant, proportional to the number of living cells, was measured by optical density (OD) read-out on a spectrophotometer at a wavelength of 570 nm. The assay was conducted at D1, D2 and D3 (D0 corresponding to the time of addition of the solutions to be assayed).
The mean OD values of the triplicates are given on a graph for each kinetic time. Standard deviations are indicated.

Nc1nc2[nH]cc(CN[C@H]3C=C[C@H](O)[C@@H]3O)c2c(=O)[nH]1 [Queuine, 2-amino-5-((((1s,4s,5r)-4,5-dihydroxy-2-cyclopenten-1-yl)amino)methyl)-1,7-dihydro-4h-pyrrolo(2,3-d)pyrimidin-4-one]
migration compared with 2.5% FCS control ([1]; 10 μg/ml and 30 μg/ml in 2.5% FCS): better migration than in 2.5% FCS | effect on migration of the fibroblasts ([1]; 10 μg/ml): has an effect on migration of the fibroblasts; also recorded: has an effect on the migration of adult HDFs | gap closure (observation of photos) ([1]; 30 μg/ml in 2.5% FCS): the cells of the two edges meet in the centre of the gap | effect on migration of the fibroblasts ([1]; 30 μg/ml): confirmed | migration compared with positive 10% FCS control ([1]; 10 and 30 μg/ml): equivalent to that obtained with the positive 10% FCS control | Mean - blank (BrdU OD) ([2]; 0.3 μg/ml, 24 h contact time): 1.181 | Mean ODs (BrdU cell proliferation) ([2]; 0.3 μg/ml, 24 h contact time, DMEM 2.5% FCS): 1.312 | Mean - blank (BrdU OD) ([2]; 0.3 μg/ml, 48 h contact time): 0.677 | Mean ODs (BrdU cell proliferation) ([2]; 0.3 μg/ml, 48 h contact time, shortened substrate incubation): 0.800 | Mean - blank (BrdU OD) ([2]; 0.3 μg/ml, 72 h contact time): 0.416 | Mean ODs (BrdU cell proliferation) ([2]; 0.3 μg/ml, 72 h contact time, shortened substrate incubation): 0.586 | Mean - blank (BrdU OD) ([2]; 1 μg/ml, 24 h contact time): 1.197 | Mean ODs (BrdU cell proliferation) ([2]; 1 μg/ml, 24 h contact time, DMEM 2.5% FCS): 1.328 | Mean - blank (BrdU OD) ([2]; 1 μg/ml, 48 h contact time): 0.803 | Mean ODs (BrdU cell proliferation) ([2]; 1 μg/ml, 48 h contact time, shortened substrate incubation): 0.926 | Mean - blank (BrdU OD) ([2]; 1 μg/ml, 72 h contact time): 0.378 | Mean ODs (BrdU cell proliferation) ([2]; 1 μg/ml, 72 h contact time, shortened substrate incubation): 0.548 | Mean - blank (BrdU OD) ([2]; 3 μg/ml, 24 h contact time): .391 | Mean ODs (BrdU cell proliferation) ([2]; 3 μg/ml, 24 h contact time, DMEM 2.5% FCS): 1.522 | Mean - blank (BrdU OD) ([2]; 3 μg/ml, 48 h contact time): 0.793 | Mean ODs (BrdU cell proliferation) ([2]; 3 μg/ml, 48 h contact time, shortened substrate incubation): 0.915 | Mean - blank (BrdU OD) ([2]; 3 μg/ml, 72 h contact time): 0.511 | Mean ODs (BrdU cell proliferation) ([2]; 3 μg/ml, 72 h contact time, shortened substrate incubation): 0.681 | Mean - blank (BrdU OD) ([2]; 10 μg/ml, 24 h contact time): 1.494 | Mean ODs (BrdU cell proliferation) ([2]; 10 μg/ml, 24 h contact time, DMEM 2.5% FCS): 1.625 | Mean - blank (BrdU OD) ([2]; 10 μg/ml, 48 h contact time): 0.943 | Mean ODs (BrdU cell proliferation) ([2]; 10 μg/ml, 48 h contact time, shortened substrate incubation): 1.066 | Mean - blank (BrdU OD) ([2]; 10 μg/ml, 72 h contact time): 0.538 | Mean ODs (BrdU cell proliferation) ([2]; 10 μg/ml, 72 h contact time, shortened substrate incubation): 0.708 | Mean - blank (BrdU OD) ([2]; 30 μg/ml, 24 h contact time): 1.502 | Mean ODs (BrdU cell proliferation) ([2]; 30 μg/ml, 24 h contact time, DMEM 2.5% FCS): 1.634 | Mean - blank (BrdU OD) ([2]; 30 μg/ml, 48 h contact time): 1.026 | Mean ODs (BrdU cell proliferation) ([2]; 30 μg/ml, 48 h contact time, shortened substrate incubation): 1.149 | Mean - blank (BrdU OD) ([2]; 30 μg/ml, 72 h contact time): 0.787 | Mean ODs (BrdU cell proliferation) ([2]; 30 μg/ml, 72 h contact time, shortened substrate incubation): 0.958 | proliferative effect ([2]; 3, 10 and 30 μg/ml after 72 hours' incubation): a proliferative effect is evidenced | proliferative effect ([2]; 72 hours, 30 μg/ml): particularly pronounced; also recorded: major proliferative effect | proliferative effect ([2]; 72 hours, 3 and 10 μg/ml): clear proliferative effect | proliferative effect compared with the carrier ([2]; short times (24 and 48 hours)): no significant effect | Mean - blank (cell viability OD) ([3]; 0.1 μg/ml, 24 h contact time): 0.133 | OD mean values (cell viability) ([3]; 0.1 μg/ml, 24 h contact time): 0.228 | Mean - blank (cell viability OD) ([3]; 0.1 μg/ml, 48 h contact time): 0.219 | Mean OD values (cell viability) ([3]; 0.1 μg/ml, 48 h contact time): 0.304 | Mean - blank (cell viability OD) ([3]; 0.1 μg/ml, 72 h contact time): 0.223 | Mean OD values (cell viability) ([3]; 0.1 μg/ml, 72 h contact time): 0.341 | Mean - blank (cell viability OD) ([3]; 1 μg/ml, 24 h contact time): 0.155 | OD mean values (cell viability) ([3]; 1 μg/ml, 24 h contact time): 0.250 | Mean - blank (cell viability OD) ([3]; 1 μg/ml, 48 h contact time): 0.246 | Mean OD values (cell viability) ([3]; 1 μg/ml, 48 h contact time): 0.331 | Mean - blank (cell viability OD) ([3]; 1 μg/ml, 72 h contact time): 0.244 | Mean OD values (cell viability) ([3]; 1 μg/ml, 72 h contact time): 0.362 | Mean - blank (cell viability OD) ([3]; 10 μg/ml, 24 h contact time): 0.151 | OD mean values (cell viability) ([3]; 10 μg/ml, 24 h contact time): 0.246 | Mean - blank (cell viability OD) ([3]; 10 μg/ml, 48 h contact time): 0.243 | Mean OD values (cell viability) ([3]; 10 μg/ml, 48 h contact time): 0.328 | Mean - blank (cell viability OD) ([3]; 10 μg/ml, 72 h contact time): 0.277 | Mean OD values (cell viability) ([3]; 10 μg/ml, 72 h contact time): 0.395 | Mean - blank (cell viability OD) ([3]; 100 μg/ml, 24 h contact time): 0.138 | OD mean values (cell viability) ([3]; 100 μg/ml, 24 h contact time): 0.233 | Mean - blank (cell viability OD) ([3]; 100 μg/ml, 48 h contact time): 0.188 | Mean OD values (cell viability) ([3]; 100 μg/ml, 48 h contact time): 0.273 | Mean - blank (cell viability OD) ([3]; 100 μg/ml, 72 h contact time): 0.154 | Mean OD values (cell viability) ([3]; 100 μg/ml, 72 h contact time): 0.272 | cytotoxic effect ([3]; 100 μg/ml, at 48 h): exhibited a cytotoxic effect | cytotoxic effect ([3]; concentrations below 100 μg/ml): do not exhibit any cytotoxic effect; also recorded: did not display any cytotoxic effect
